# Measured values taken from ChEMBL document CHEMBL1201862, “PubChem BioAssay data set” (2004).
#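 Results reflect a 48-hour exposure of cells in 96-well plates to compound at five concentrations. The concentration for 50% growth inhibition is given as GI50.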 The source made the active and inactive calls. No stated cut-off is given here; in the data, active = GI50 up to about 1.1 µM and inactive = higher.
# Assays:
# Assay in all cases: NCI tumour cell line growth inhibition, 48 h
# [1] = test system: NCI-H226
# [2] = test system: U-251
# [3] = test system: CAKI-1
# [4] = test system: MCF7
# [5] = test system: UACC-257
# [6] = test system: EKVX
# [7] = test system: KM12
# [8] = test system: HCT-15
# [9] = test system: IGROV-1
# [10] = test system: HL-60
# [11] = test system: DU-145
# [12] = test system: RXF 393
# [13] = test system: HCC 2998
# [14] = test system: OVCAR-8
# [15] = test system: HCT-116
# [16] = test system: K562
# [17] = test system: LOX IMVI
# [18] = test system: HOP-62
# [19] = test system: SK-MEL-2
# [20] = test system: MDA-MB-435
# [21] = test system: ACHN
# [22] = test system: TK-10
# [23] = test system: SNB-19
# [24] = test system: NCI-H23
# [25] = test system: Hs-578T
# [26] = test system: SK-MEL-5
# [27] = test system: OVCAR-3
# [28] = test system: RPMI-8226
# [29] = test system: M14
# [30] = test system: COLO 205
# [31] = test system: MOLT-4
# [32] = test system: SNB-75
# [33] = test system: SK-OV-3
# [34] = test system: NCI/ADR-RES
# [35] = test system: MDA-MB-231
# [36] = test system: SW-620
# [37] = test system: HT-29
# [38] = test system: 786-0
# [39] = test system: MDA-N
# [40] = test system: SF-539
# [41] = test system: PC-3
# [42] = test system: OVCAR-4
# [43] = test system: Malme-3M
# [44] = test system: A498
# [45] = test system: SN12C
# [46] = test system: SK-MEL-28
# [47] = test system: HOP-92
# [48] = test system: NCI-H522
# [49] = test system: T47D
# [50] = test system: UO-31
# [51] = test system: SF-268
# [52] = test system: CCRF-CEM
# [53] = test system: SF-295
# [54] = test system: A549
# [55] = test system: OVCAR-5
smiles,measurement,setting,value
COc1ccc(/C=C2\N=C3Sc4c([nH]cnc4=O)N3C2=O)cc1,GI50,[1],> 100 µM (inactive)
same,GI50,[2],> 100 µM (inactive)
same,GI50,[3],> 100 µM (inactive)
same,GI50,[4],> 100 µM (inactive)
same,GI50,[5],> 100 µM (inactive)
same,GI50,[6],78.9 µM (inactive)
same,GI50,[7],> 100 µM (inactive)
same,GI50,[8],> 100 µM
same,GI50,[9],> 100 µM (inactive)
same,GI50,[10],> 100 µM (inactive)
same,GI50,[11],> 100 µM (inactive)
same,GI50,[12],> 100 µM (inactive)
same,GI50,[13],13.1 µM (inactive)
same,GI50,[14],> 100 µM (inactive)
same,GI50,[15],> 100 µM (inactive)
same,GI50,[16],> 100 µM (inactive)
same,GI50,[17],> 100 µM (inactive)
same,GI50,[18],> 100 µM (inactive)
same,GI50,[19],> 100 µM (inactive)
same,GI50,[20],> 100 µM (inactive)
same,GI50,[21],> 100 µM (inactive)
same,GI50,[22],> 100 µM (inactive)
same,GI50,[23],> 100 µM (inactive)
same,GI50,[24],> 100 µM (inactive)
same,GI50,[25],> 100 µM (inactive)
same,GI50,[26],> 100 µM (inactive)
same,GI50,[27],> 100 µM (inactive)
same,GI50,[28],> 100 µM (inactive)
same,GI50,[29],> 100 µM (inactive)
same,GI50,[30],> 100 µM (inactive)
same,GI50,[31],> 100 µM (inactive)
same,GI50,[32],> 100 µM (inactive)
same,GI50,[33],> 100 µM (inactive)
same,GI50,[34],> 100 µM (inactive)
same,GI50,[35],> 100 µM (inactive)
same,GI50,[36],> 100 µM (inactive)
same,GI50,[37],> 100 µM (inactive)
same,GI50,[38],> 100 µM (inactive)
same,GI50,[39],> 100 µM (inactive)
same,GI50,[40],> 100 µM (inactive)
same,GI50,[41],> 100 µM (inactive)
same,GI50,[42],> 100 µM (inactive)
same,GI50,[43],> 100 µM (inactive)
same,GI50,[44],> 100 µM (inactive)
same,GI50,[45],> 100 µM (inactive)
same,GI50,[46],> 100 µM (inactive)
same,GI50,[47],> 100 µM (inactive)
same,GI50,[48],> 100 µM (inactive)
same,GI50,[49],> 100 µM (inactive)
same,GI50,[50],> 100 µM (inactive)
same,GI50,[51],> 100 µM (inactive)
same,GI50,[52],> 100 µM (inactive)
same,GI50,[53],> 100 µM (inactive)
same,GI50,[54],> 100 µM (inactive)
same,GI50,[55],> 100 µM (inactive)
